Assay results from patent US20190365673A1, “Immunomodulatory Compounds” (Lankenau Institute for Medical Research, priority 2016, published 2019).
pIC50: −log10 of the molar value.

Legend:
WM3734 melanoma cells = test: Cell viability assay (EZQuant), WM3734; assay type: cell-based; conditions: Homo sapiens; AP alone, 72 h, WM3734, BRAF V600E
Procedure: (§2) Cell proliferation assays were conducted in 96-well plates at 25-30% starting confluence to determine the effect of exposure to increasing concentrations of PLX4720 or AP with or without 1 mM DFMO for 72 hours. Cell viability was assessed using the EZQuant™ Cell Quantifying Kit (Alstem) in which WST-8 is reduced by the metabolic activity of live cells to formazan dye. […] The 72 hour IC50 values for AP were calculated using non-linear regression (sigmoidal dose response) of the plot of percentage inhibition versus the log of inhibitor concentration in GraphPad Prism (v5; GraphPad Software, Inc., La Jolla, Calif.).

1205Lu melanoma cells = test: Cell viability assay (EZQuant), 1205Lu; assay type: cell-based; conditions: Homo sapiens, AP alone, 72 h, BRAF V600E
Procedure: as §2

WM989 melanoma cells = test: Cell viability assay (EZQuant), WM989; assay type: cell-based; conditions: Homo sapiens; AP alone, 72 h, WM989, BRAF V600E
Procedure: as §2

WM88 melanoma cells = test: Cell viability assay (EZQuant), WM88; assay type: cell-based; conditions: Homo sapiens; AP alone, 72 h, WM88, BRAF V600E
Procedure: as §2

WM3451 melanoma cells = test: Cell viability assay (EZQuant), WM3451; assay type: cell-based; conditions: Homo sapiens; AP alone, 72 h, WM3451, BRAF WT
Procedure: as §2

WM3743 melanoma cells = test: Cell viability assay (EZQuant), WM3743; assay type: cell-based; conditions: Homo sapiens; AP alone, 72 h, WM3743, BRAF WT
Procedure: as §2

WM3211 melanoma cells = test: Cell viability assay (EZQuant), WM3211; assay type: cell-based; conditions: Homo sapiens; AP alone, 72 h, WM3211, BRAF WT
Procedure: as §2

[1] = system: polyamine transport system (PTS); test: Radiolabeled spermidine transport assay, human melanoma cell lines; assay type: cell-based; conditions: ± SD
Procedure: Polyamine transport in tumor cells was evaluated essentially as described (Kramer, et al. (1993) J. Cell Physiol., 155(2):399-407; Nilsson, et al. (2005) Cancer Cell 7(5):433-444). Radioactive spermidine (Net-522 Spermidine Trihydrochloride, [Terminal Methylenes-^3H(n)]) from Perkin Elmer was used (specific activity: 16.6 Ci/mmol). Cells were plated in 96 well plates and grown to approximately 80% confluence. Half of the cells were treated with 1 mM DFMO for 40 hours. After repeated washing with PBS, ^3H-spermidine was added at 1 μM and incubated for 60 minutes at 37° C. Cells were then washed with cold PBS containing 50 μM spermidine and lysed in 0.1% SDS at 37° C. for 30 minutes with mixing. Cell lysates were then aliquoted for scintillation counting and for protein assay using a mini-BioRad assay. Results were expressed as CPM/g protein.

[2] = system: BRAF^V600E YUMM1.7 melanoma cells; test: Cell viability assay (EZQuant), YUMM1.7; assay type: cell-based, murine; conditions: FIGS. 9A, 9B, 72 h
Procedure: FIG. 9A: Murine BRAF^V600E YUMM1.7 melanoma cells and BRAF^WT B16F10 melanoma cells were treated with increasing doses of AP. After 72 hours of culture, cell survival was determined via EZQuant™ Cell Quantifying assay. IC50 values were calculated by GraphPad Prism 6. FIG. 9B: Murine BRAF^V600E YUMM1.7 melanoma cells and BRAF^WT B16F10 melanoma cells were treated with increasing doses of AP±1 mM DFMO or with PLX4720. After 72 hours of culture, cell survival was determined via EZQuant™ Cell Quantifying assay. IC50 values were calculated by GraphPad Prism 6. […] Cells were washed with cold PBS containing 50 μM spermidine, and cell lysates were assayed for CPM ^3H-spermidine per mg protein by scintillation counting.

B16F10-BRAF^V600E cells = test: Cell viability assay, B16F10-BRAF V600E; conditions: Mus musculus, read-out: IC50 (cytotoxicity)
Procedure: (§1) Cell proliferation assays were conducted in 96-well plates at 25-30% starting confluence to determine the effect of exposure to increasing concentrations of PLX4720 or AP with or without 1 mM DFMO for 72 hours. Cell viability was assessed using the EZQuant™ Cell Quantifying Kit (Alstem) in which WST-8 is reduced by the metabolic activity of live cells to formazan dye. For spheroids treated with PLX4720 and/or AP, viability of the spheroid cells was estimated by quantification of the ATP present using a CellTiter-Glo Luminescent Cell Viability Assay (Promega Co., Madison, Wis.). The 72 hour IC50 values for AP were calculated using non-linear regression (sigmoidal dose response) of the plot of percentage inhibition versus the log of inhibitor concentration in GraphPad Prism (v5; GraphPad Software, Inc., La Jolla, Calif.).

B16F10-pBABE cells = test: Cell viability assay, B16F10-pBABE; conditions: Mus musculus, read-out: IC50 (cytotoxicity)
Procedure: as §1

[3] = system: 1205Lu melanoma monolayer cultures; test: 2D monolayer culture viability (CellTiter-Glo); assay type: cell-based, human; conditions: FIG. 10, 25 μM each drug, 48 h
Procedure: BRAF^V600E mutant 1205Lu melanoma cells were seeded at 1×10^4 cells in each well of the […] NCPs. When spheroids were formed on day 3, the 3D cultures of spheroids were treated with PLX4720 (25 μM) and/or AP (25 μM). 2D monolayer cultures of 1205Lu melanoma cells were also treated with PLX4720 (25 μM) and/or AP (25 μM). After drug treatment for 48 hours, the viability of spheroids and monolayer cultures was assayed using the CellTiter-Glo Luminescent Cell Viability Assay. The percent cell survival in each treatment group was calculated relative to cells treated with medium only under the same conditions. As controls, the growth of cells without drug treatment under each condition was normalized as 100% separately. The means are presented±SD.

[4] = system: BRAF-mutant melanoma tumor; test: BRAF-mutant melanoma tumor in mice treated with PLX4720; assay type: in vivo; conditions: FIG. 11, co-treatment with PLX4720, begun when the tumor has regressed
Procedure: FIG. 11 provides a graph of tumor volume in mice over time after treatment with PLX4720 alone or PLX4720 with delayed administration of AP and DFMO.
In addition to the above, the efficacy of AP in vivo was also tested.

[5] = system: CXCR4^+ RAW247.6 macrophage cells; test: In vitro chemotaxis assay, SDF-1 stimulated migration; assay type: cell-based
Procedure: The ability to inhibit stromal cell-derived factor 1 (SDF-1) stimulated migration of macrophage was also tested in an in vitro chemotaxis assay. Specifically, CXCR4^+ RAW247.6 macrophage cells were treated with SDF-1α alone or with AMD3100, a specific CXCR4 antagonist which inhibits cell migration and phosphorylation of ERK1/2 by SDF-1, or AP (Formula (II)).

CNCNCNCc1ccc(CNCNCNC)c2ccccc12 [AP]
IC50 (WM3734 melanoma cells): 2.2 µM | IC50 (1205Lu melanoma cells): 0.7 µM | IC50 (WM989 melanoma cells): 1.2 µM | IC50 (WM88 melanoma cells): 0.8 µM | IC50 (WM3451 melanoma cells): 9 µM | IC50 (WM3743 melanoma cells): 8.9 µM | IC50 (WM3211 melanoma cells): 4.5 µM | PTS Activity (cpm ^3H Spd/μg Protein) ([1]; 1205Lu, column group AP (without DFMO)): 230 ± 22 cpm ^3H Spd/μg Protein | PTS Activity (cpm ^3H Spd/μg Protein) ([1]; WM88, column group AP (without DFMO)): 302 ± 18 cpm ^3H Spd/μg Protein | PTS Activity (cpm ^3H Spd/μg Protein) ([1]; WM983B, column group AP (without DFMO)): 487 ± 64 cpm ^3H Spd/μg Protein | PTS Activity (cpm ^3H Spd/μg Protein) ([1]; WM989, column group AP (without DFMO)): 304 ± 28 cpm ^3H Spd/μg Protein | PTS Activity (cpm ^3H Spd/μg Protein) ([1]; WM3211, column group AP (without DFMO)): 278 ± 58 cpm ^3H Spd/μg Protein | PTS Activity (cpm ^3H Spd/μg Protein) ([1]; WM3451, column group AP (without DFMO)): 130 ± 21 cpm ^3H Spd/μg Protein | PTS Activity (cpm ^3H Spd/μg Protein) ([1]; WM3734, column group AP (without DFMO)): 444 ± 46 cpm ^3H Spd/μg Protein | PTS Activity (cpm ^3H Spd/μg Protein) ([1]; WM3743, column group AP (without DFMO)): 117 ± 23 cpm ^3H Spd/μg Protein | sensitivity to AP (IC50 compared to BRAF WT B16F10 cells) [2]: significantly more sensitive | pIC50 (B16F10-BRAF^V600E cells): 4.61 | pIC50 (B16F10-pBABE cells): 4.44 | cell viability of monolayer cultures [3]: similarly sensitive | regrowth of BRAF inhibitor-resistant tumor [4]: significantly retards the regrowth | SDF-1-stimulated migration of CXCR4+ macrophages ([5]; FIG. 13): inhibits | viability of the macrophages ([5]; in the chemotaxis assay): without affecting the viability
